These results are taken from US20250281483A1, “TRANSCRIPTION FACTOR EB ACTIVATORS AND USES THEREOF” (Astellas Engineered Small Molecules US, Incorporated, priority 2022, published 2025).

pEC50: −log10 of the molar value.

For this assay, the target named is T1, TFEB (Homo sapiens, UniProt P19484).
T1 sequence (P19484 1-476): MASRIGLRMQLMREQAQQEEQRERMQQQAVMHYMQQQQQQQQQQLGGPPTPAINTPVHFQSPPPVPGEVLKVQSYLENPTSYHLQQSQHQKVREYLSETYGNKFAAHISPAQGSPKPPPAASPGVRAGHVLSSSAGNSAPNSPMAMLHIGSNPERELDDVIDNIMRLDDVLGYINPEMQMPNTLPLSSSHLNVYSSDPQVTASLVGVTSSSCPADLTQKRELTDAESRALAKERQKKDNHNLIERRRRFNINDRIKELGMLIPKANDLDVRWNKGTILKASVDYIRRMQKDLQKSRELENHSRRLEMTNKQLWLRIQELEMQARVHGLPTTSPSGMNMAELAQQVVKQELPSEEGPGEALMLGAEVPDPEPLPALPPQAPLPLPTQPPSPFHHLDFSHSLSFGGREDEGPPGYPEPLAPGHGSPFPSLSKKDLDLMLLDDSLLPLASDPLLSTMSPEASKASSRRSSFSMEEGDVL
As to the kind of experiment: Tfeb-Translocation Assay HEK-293T-oEX-Tfeb-GFP Cell Line. It is filed as cell-based. Conditions: HEK-293T-oEX-TFEB-GFP cells; translocation positive cells ratio; read-out: TFEB Translocation EC50. The procedure:
Tfeb-Translocation Assay HEK-293T-oEX-Tfeb-GFP Cell Line
• 1). Added 2×10^6 cell into a T75 flask with 15 mL DiVEM medium (with 10% FBS, 1% PS, 1×GLUTAMAX, 1×MEM NEAA, 1×HEPES Buffer Solution and 5 ug/mL blasticidin). • 2). Culturing for 48-72 hours. Cells in logarithmic growth phase were taken for experiment. The other cells were passaged as described in step 1. • 3). Seeded 1×10^4 cells/30 μL/well into 384-well plate (BD 356663). Cultured overnight at 37° C. & 5% CO2 incubator. • 4). Note: Used cells <10 passage
• 1). Compounds were firstly diluted by DMSO to the stock needed (10 mM), and aliquoted and stored at −20° C. • 2). Took one aliquot each time and made 3-fold or 2-fold dilutions as indicated, total 10 doses plus one DMSO control well in the source plate. • 3). Added 150 or 90 nL/well compounds solution to the assay plate by ECHO and incubated for 6 or 18 hours respectively at 37° C. & 5% CO2 incubator.
• 1). Added 30 uL 8% PFA into the wells and incubated 20 min at room temperature. • 2). Discarded the medium, washed the wells twice with DPBS to eliminate foam and bubbles in the well.
• 1). Diluted Hoechest-333824 in DPBS to get 2 μg/mL solution and added 30 uL/well into assay plate, incubated at room temperature for 20 mins. • 2). Discarded the supernatant, washed the wells twice with DPBS to eliminate foam and bubbles in the well. Then added DPBS 20 uL/well.
3). Scanned Plate by Operetta.
• 1). Reference compound: Torin 1 • 2). Test compounds: C1, C2, C3, C4, C5, C6. • 3). Diluted compounds in 384 LDV-dilution plate according to the dilution plate map • 4). Compounds starting concentration: Torin 1: 300 nM and Test compounds: 50 uM.
• 1). Selected all nucleus by Operetta as ‘All Cells’ • 2). Calculated the EGFP average intensity inside the Nucleus region. • 3). Selected population that the EGFP mean intensity inside the Nucleus region>background as the EGFP-positive cells • 4). Selected the Surrounding region of the nucleus and calculated the EGFP mean intensity of the region • 5). Inside the EGFP-positive cell population, selected the cells with EGFP mean intensity inside the Nucleus region/the EGFP mean intensity inside the surrounding region=1.2 (This ratio could be slightly adjusted from time to time) as the Translocation positive cell. • 6). Outputted the ratio of Translocation positive cell/EGFP-positive cells as the Translocation Positive Ratio. • 7). Each time set the ratio of DMSO group (Control Group) as ˜15% and then normalized the compound group to the DMSO group.
Regarding `Cc1nc2ccn(Cc3ccccc3)c(=O)c2cc1C(=O)NCc1cncnc1` [Example 34, 6-benzyl-2-methyl-5-oxo-N-(pyrimidin-5-ylmethyl)-5,6-dihydro-1,6-naphthyridine-3-carboxamide], the pEC50 (commonly the negative decadic logarithm of the EC50, by convention in mol/L) was 6.00 to 7.00.
Take `Cc1nc2ccn(Cc3ccccc3)c(=O)c2cc1C(=O)NCc1ccc(F)cn1` [Example 35, 6-benzyl-N-((5-fluoropyridin-2-yl)methyl)-2-methyl-5-oxo-5,6-dihydro-1,6-naphthyridine-3-carboxamide]: the pEC50 is > 7.00.
Turning to `Cc1nc2ccn(Cc3ccccc3)c(=O)c2cc1C(=O)NCc1ncccc1F` [Example 36, 6-benzyl-N-((3-fluoropyridin-2-yl)methyl)-2-methyl-5-oxo-5,6-dihydro-1,6-naphthyridine-3-carboxamide], the pEC50 is 5.00 to 6.00.
To `Cc1nc2ccn(C(C)c3ccccc3)c(=O)c2cc1C(=O)NCc1ccccn1` (stereo not drawn) [Example 37, 2-methyl-5-oxo-6-(1-phenylethyl)-N-(pyridin-2-ylmethyl)-5,6-dihydro-1,6-naphthyridine-3-carboxamide] belongs 6.00 to 7.00; to `Cc1nc2ccn(Cc3ccccc3)c(=O)c2cc1C(=O)NCc1ccc(Cl)cn1` [Example 38, 6-benzyl-N-((5-chloropyridin-2-yl)methyl)-2-methyl-5-oxo-5,6-dihydro-1,6-naphthyridine-3-carboxamide], > 7.00.
Regarding `Cc1nc2ccn(Cc3ccccc3)c(=O)c2cc1C(=O)NCc1cc(F)ccn1` [Example 39, 6-benzyl-N-((4-fluoropyridin-2-yl)methyl)-2-methyl-5-oxo-5,6-dihydro-1,6-naphthyridine-3-carboxamide], the pEC50 is 6.00 to 7.00.
Take `Cc1nc2ccn(CC3CCCCC3)c(=O)c2cc1C(=O)NCc1ccccn1` [Example 40, 6-(cyclohexylmethyl)-2-methyl-5-oxo-N-(pyridin-2-ylmethyl)-5,6-dihydro-1,6-naphthyridine-3-carboxamide]: the pEC50 is ≤ 5.00.
Turning to `Cc1nc2ccn(Cc3ccccn3)c(=O)c2cc1C(=O)NCc1ccccn1` [Example 41, 2-methyl-5-oxo-N,6-bis(pyridin-2-ylmethyl)-5,6-dihydro-1,6-naphthyridine-3-carboxamide], the pEC50 was 5.00 to 6.00.
Consider `CNC(=O)c1cc2c(=O)n(Cc3ccccc3)ccc2nc1C` [Example 42, 6-benzyl-N,2-dimethyl-5-oxo-5,6-dihydro-1,6-naphthyridine-3-carboxamide], for which the pEC50 was ≤ 5.00.
Take `Cc1nc2ccn(Cc3ccccc3)c(=O)c2cc1C(=O)NCc1ccc(C(N)=O)cc1` [Example 43, 6-benzyl-N-(4-carbamoylbenzyl)-2-methyl-5-oxo-5,6-dihydro-1,6-naphthyridine-3-carboxamide]: the pEC50 is ≤ 5.00.
`Cc1nc2ccn(Cc3ccc(F)cn3)c(=O)c2cc1C(=O)NCc1ccccn1` [Example 44, 6-((5-fluoropyridin-2-yl)methyl)-2-methyl-5-oxo-N-(pyridin-2-ylmethyl)-5,6-dihydro-1,6-naphthyridine-3-carboxamide]: the pEC50 was 5.00 to 6.00.
As for `Cc1nc2ccn(C(C)C)c(=O)c2cc1C(=O)NCc1ccccn1` [Example 45, 6-isopropyl-2-methyl-5-oxo-N-(pyridin-2-ylmethyl)-5,6-dihydro-1,6-naphthyridine-3-carboxamide], the figure is 6.00 to 7.00.
Turning to `Cc1nc2ccn(-c3ccccc3)c(=O)c2cc1C(=O)NCc1ccccn1` [Example 46, 2-methyl-5-oxo-6-phenyl-N-(pyridin-2-ylmethyl)-5,6-dihydro-1,6-naphthyridine-3-carboxamide], the negative-log EC50 (pEC50) was 5.00 to 6.00.
Take `Cc1nc2ccn(Cc3ccc(F)cc3)c(=O)c2cc1C(=O)NCc1ccccn1` [Example 47, 6-(4-fluorobenzyl)-2-methyl-5-oxo-N-(pyridin-2-ylmethyl)-5,6-dihydro-1,6-naphthyridine-3-carboxamide]: the negative-log EC50 (pEC50) is > 7.00.
With `Cc1cnc(Cn2ccc3nc(C)c(C(=O)NCc4ccccn4)cc3c2=O)o1` [Example 48, 2-methyl-6-((5-methyloxazol-2-yl)methyl)-5-oxo-N-(pyridin-2-ylmethyl)-5,6-dihydro-1,6-naphthyridine-3-carboxamide], the negative logarithm of the EC50 (pEC50) is ≤ 5.00.
For the molecule `Cc1nc2ccn(Cc3cnn(C)c3)c(=O)c2cc1C(=O)NCc1ccccn1` [Example 49, 2-methyl-6-((1-methyl-1H-pyrazol-4-yl)methyl)-5-oxo-N-(pyridin-2-ylmethyl)-5,6-dihydro-1,6-naphthyridine-3-carboxamide], the negative-log EC50 (pEC50) was ≤ 5.00.
For the molecule `Cc1nc2ccn(Cc3ccncc3)c(=O)c2cc1C(=O)NCc1ccccn1` [Example 52, 2-methyl-5-oxo-N-(pyridin-2-ylmethyl)-6-(pyridin-4-ylmethyl)-5,6-dihydro-1,6-naphthyridine-3-carboxamide], the negative-log EC50 (pEC50) is ≤ 5.00.
For `Cc1nc2ccn(C)c(=O)c2cc1C(=O)NCc1ccccn1` [Example 53, 2,6-dimethyl-5-oxo-N-(pyridin-2-ylmethyl)-5,6-dihydro-1,6-naphthyridine-3-carboxamide], the negative-log EC50 (pEC50) is ≤ 5.00.
To `Cc1ccc(Cn2ccc3nc(C)c(C(=O)NCc4ccccn4)cc3c2=O)cc1` [Example 54, 2-methyl-6-(4-methylbenzyl)-5-oxo-N-(pyridin-2-ylmethyl)-5,6-dihydro-1,6-naphthyridine-3-carboxamide] belongs > 7.00; to `Cc1nc2ccn(Cc3cccc(F)c3)c(=O)c2cc1C(=O)NCc1ccccn1` [Example 55, 6-(3-fluorobenzyl)-2-methyl-5-oxo-N-(pyridin-2-ylmethyl)-5,6-dihydro-1,6-naphthyridine-3-carboxamide], > 7.00.
To `Cc1nc2ccn(Cc3ccccc3F)c(=O)c2cc1C(=O)NCc1ccccn1` [Example 56, 6-(2-fluorobenzyl)-2-methyl-5-oxo-N-(pyridin-2-ylmethyl)-5,6-dihydro-1,6-naphthyridine-3-carboxamide] belongs 6.00 to 7.00.
Consider `Cc1nc2ccn(Cc3ccccc3)c(=O)c2cc1C(=O)NCc1cc(F)c(Cl)cn1` [Example 57, 6-benzyl-N-((5-chloro-4-fluoropyridin-2-yl)methyl)-2-methyl-5-oxo-5,6-dihydro-1,6-naphthyridine-3-carboxamide], for which the pEC50 was > 7.00.
For `Cc1nc2ccn(Cc3cccnc3)c(=O)c2cc1C(=O)NCc1ccccn1` [Example 58, 2-methyl-5-oxo-N-(pyridin-2-ylmethyl)-6-(pyridin-3-ylmethyl)-5,6-dihydro-1,6-naphthyridine-3-carboxamide], the pEC50 is ≤ 5.00.
Turning to `COCCOCCOCCn1ccc2nc(C)c(C(=O)NCc3ccc(Cl)cn3)cc2c1=O` [Example 59, N-((5-chloropyridin-2-yl)methyl)-6-(2-(2-(2-methoxyethoxy)ethoxy)ethyl)-2-methyl-5-oxo-5,6-dihydro-1,6-naphthyridine-3-carboxamide], the negative-log EC50 (pEC50) was ≤ 5.00.
As for `Cc1nc2ccn(CC34CC(C3)C4)c(=O)c2cc1C(=O)NCc1ccccn1` [Example 60, 6-(bicyclo[1.1.1]pentan-1-ylmethyl)-2-methyl-5-oxo-N-(pyridin-2-ylmethyl)-5,6-dihydro-1,6-naphthyridine-3-carboxamide], the pEC50 is 5.00 to 6.00.
`Cc1nc2ccn(Cc3ccc(F)c(F)c3)c(=O)c2cc1C(=O)NCc1ccccn1` [Example 61, 6-(3,4-difluorobenzyl)-2-methyl-5-oxo-N-(pyridin-2-ylmethyl)-5,6-dihydro-1,6-naphthyridine-3-carboxamide]: the pEC50 was > 7.00.
On to `Cc1nc2ccn(Cc3ccc(F)c(F)c3)c(=O)c2cc1C(=O)NCc1cc(F)c(F)cn1` [Example 62, 6-(3,4-difluorobenzyl)-N-((4,5-difluoropyridin-2-yl)methyl)-2-methyl-5-oxo-5,6-dihydro-1,6-naphthyridine-3-carboxamide], for which the pEC50 was > 7.00.
